Measurements reported in article PMC12566046, “Arylpiperazinyl-Benzocycloheptapyrrole-Carboxamides Endowed with Dual Anticancer and Antiviral Activities” (Molecules, 2025).
Read-outs that look alike come from different tables or passages of the source.

Experiments:
[1] = test system: HCT-15 (colon cancer cell line); experiment: NCI-60 five-dose assay; format: cell-based, human; conditions: Homo sapiens, five doses (10^−4–10^−8 M), read-out: Growth inhibition 50 (GI50)
[2] = test system: LOX IMVI (melanoma cell line); experiment: NCI-60 five-dose assay; conditions: for GI50: read-out: Growth inhibition 50 (GI50)
[3] = test system: Leukemia panel; experiment: NCI-60 five-dose assay, panel-level GI50 (mean graph midpoint, range); format: cell-based, human; conditions: Homo sapiens
Description: (§1) Due to these preliminary results, six compounds, 1, 5, 10, 11, 17, and 20, were selected for the five-dose screen NCI-programme against the same panel of tumour cell lines.
(§2) Next, a mean graph midpoint (MG_MD) was calculated for compounds 1, 5, 10, 11, 17, and 20 and reported as waterfall graphs GI50, TGI, and LC50 in the Supplementary Materials (Figures S69–S86). In Table 9, we reported the average GI50 for the nine-cancer panels, underlining both the activity and selectivity for compounds 1, 10, 11, and 20.

[4] = test system: Colon Cancer panel; experiment: as above; format: cell-based, human; conditions: Homo sapiens
Description: as §1, §2

[5] = test system: Melanoma panel; experiment: as above; format: cell-based, human; conditions: Homo sapiens
Description: as §1, §2

[6] = test system: CCRF-CEM (leukemia cell line); experiment: NCI-60 five-dose assay; format: cell-based, human; conditions: Homo sapiens, five doses (10^−4–10^−8 M), read-out: Growth inhibition 50 (GI50)
[7] = test system: SK-MEL-5 (melanoma cell line); experiment: NCI-60 five-dose assay; conditions: for GI50: SK-MEL-5, read-out: Growth inhibition 50 (GI50); for TGI (molar concentration giving total growth inhibition): SK-MEL-5
[8] = test system: HCC-2998 (colon cancer cell line); experiment: NCI-60 five-dose assay; format: cell-based, human; conditions: Homo sapiens, five doses (10^−4–10^−8 M), read-out: Growth inhibition 50 (GI50)
[9] = test system: K-562 (leukemia cell line); experiment: NCI-60 five-dose assay; format: cell-based, human; conditions: Homo sapiens, K562, five doses (10^−4–10^−8 M), read-out: Growth inhibition 50 (GI50)
[10] = test system: MDA-MB-468 (breast cancer); experiment: NCI-60 five-dose assay; format: cell-based, human; conditions: Homo sapiens, five-dose screen
[11] = test system: SW-620 (colon cancer cell line); experiment: NCI-60 five-dose assay; format: cell-based, human; conditions: Homo sapiens
[12] = test system: UACC-62 (melanoma cell line); experiment: NCI-60 five-dose assay; conditions: for GI50: UACC-62, read-out: Growth inhibition 50 (GI50); for TGI (molar concentration giving total growth inhibition): UACC-62
[13] = test system: HL-60(TB) (leukemia cell line); experiment: NCI-60 five-dose assay; format: cell-based, human; conditions: Homo sapiens, five doses (10^−4–10^−8 M), read-out: Growth inhibition 50 (GI50)
[14] = test system: COLO 205 (colon cancer cell line); experiment: NCI-60 five-dose assay; format: cell-based, human; conditions: Homo sapiens, five doses (10^−4–10^−8 M), read-out: Growth inhibition 50 (GI50)
[15] = test system: SK-MEL-28 (melanoma cell line); experiment: NCI-60 five-dose assay; conditions: for GI50: SK-MEL-28, read-out: Growth inhibition 50 (GI50)
[16] = test system: SK-MEL-2 (melanoma cell line); experiment: NCI-60 five-dose assay; conditions: for GI50 / CC50: Homo sapiens; for GI50: SK-MEL-2, read-out: Growth inhibition 50 (GI50); for CC50: SK-MEL-2, read-out: LC50 (molar concentration leading to 50% net cell death); for TGI (molar concentration giving total growth inhibition): SK-MEL-2
[17] = test system: SF-295 (CNS cancer cell line); experiment: NCI-60 single-dose assay; format: cell-based, human
How it was run: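 Cytotoxicity was screened at a single dose across the NCI-60 human tumour cell panel, which covers leukemia, melanoma and lung, colon, CNS, ovarian, renal, prostate and breast cancers.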

[18] = test system: NCI cancer panel (all cell lines); experiment: NCI-60 five-dose assay, overall mean graph midpoint (MG_MID); format: cell-based, human; conditions: Homo sapiens
Description: as §1, §2

[19] = test system: MOLT-4 (leukemia cell line); experiment: NCI-60 five-dose assay; format: cell-based, human; conditions: Homo sapiens, five doses (10^−4–10^−8 M), read-out: Growth inhibition 50 (GI50)
[20] = test system: RXF 393 (renal cancer cells); experiment: NCI-60 five-dose assay; format: cell-based, human; conditions: Homo sapiens, five-dose screen
[21] = test system: UACC-257 (melanoma cell line); experiment: NCI-60 five-dose assay; conditions: for GI50: UACC-257, read-out: Growth inhibition 50 (GI50); for TGI (molar concentration giving total growth inhibition): UACC-257
[22] = test system: Prostate Cancer panel; experiment: NCI-60 five-dose assay, panel-level GI50 (mean graph midpoint); format: cell-based, human; conditions: Homo sapiens; Prostate Cancer panel average; read-out: GI50 mean graph midpoint (MG_MID)
Description: as §1, §2

[23] = test system: Renal Cancer panel; experiment: as above; format: cell-based, human; conditions: Homo sapiens; Renal Cancer panel average; read-out: GI50 mean graph midpoint (MG_MID)
Description: as §1, §2

[24] = test system: M14 (melanoma cell line); experiment: NCI-60 five-dose assay; conditions: for GI50 / CC50: Homo sapiens; for GI50: M14, read-out: Growth inhibition 50 (GI50); for CC50: M14, read-out: LC50 (molar concentration leading to 50% net cell death); for TGI (molar concentration giving total growth inhibition): M14
[25] = test system: KM12 (colon cancer cell line); experiment: NCI-60 five-dose assay; format: cell-based, human; conditions: Homo sapiens, five doses (10^−4–10^−8 M), read-out: Growth inhibition 50 (GI50)
[26] = in vitro; conditions: human
[27] = test system: MDCK cells; conditions: dog
[28] = Leukemia panel average, read-out: GI50 mean graph midpoint (MG_MID)
[29] = Colon Cancer panel average, read-out: GI50 mean graph midpoint (MG_MID)
[30] = Melanoma panel average, read-out: GI50 mean graph midpoint (MG_MID)
[31] = five-dose screen, number of cell lines as named in the sentence, read-out: GI50, range over melanoma cell lines
[32] = MG_MID over all panels, read-out: GI50 mean graph midpoint (MG_MID)

O=C(NCCCN1CCN(c2ccccc2)CC1)c1cc2c([nH]1)-c1ccccc1CCC2 [Compound 10, N-(3-(4-Phenylpiperazin-1-yl)propyl)-1,4,5,6-tetrahydrobenzo[6,7]cyclohepta[1,2-b]pyrrole-2-carboxamide]
GI50 [1]: 4.71 µM | TGI (molar concentration giving total growth inhibition) [2]: 19.5 µM | GI50 ([2]; Homo sapiens): 3.62 µM | GI50 [3, 28]: 2.95 µM | GI50 [4, 29]: 3.98 µM | GI50 [5, 30]: 4.07 µM | GI50 [5, 31]: 1.65 to 2.78 µM | GI50 [6]: 8.21 µM | GI50 ([7]; Homo sapiens): 2.71 µM | TGI (molar concentration giving total growth inhibition) [7]: 9.77 µM | GI50 [8]: 2.51 µM | GI50 [9]: 2.58 µM | GI50 [10]: 2.93 µM | GI50 ([11]; SW-620, five doses (10^−4–10^−8 M), read-out: Growth inhibition 50 (GI50)): 8.89 µM | GI50 ([12]; Homo sapiens): 9.02 µM | TGI (molar concentration giving total growth inhibition) [12]: 25.12 µM | GI50 [13]: 5.58 µM | GI50 [14]: 1.92 µM | GI50 ([15]; Homo sapiens): 2.51 µM | TGI (molar concentration giving total growth inhibition) ([15]; SK-MEL-28): 8.51 µM | GI50 [16]: 14.9 µM | CC50 [16]: 81.3 µM | TGI (molar concentration giving total growth inhibition) [16]: 34.67 µM | growth inhibition (GI%) and cytotoxicity (negative values) ([17]; SF-295, single-dose assay): 90.84% | GI50 [18, 32]: 7.24 µM | GI50 [19]: 4.97 µM | GI50 [20]: 2.06 µM | GI50 ([21]; Homo sapiens): 2.29 µM | TGI (molar concentration giving total growth inhibition) [21]: 6.61 µM | GI50 [22]: 6.61 µM | GI50 [23]: 8.71 µM | GI50 [24]: 2.78 µM | CC50 [24]: 44.7 µM | TGI (molar concentration giving total growth inhibition) [24]: 8.51 µM | GI50 [25]: 4.89 µM

CCOc1ccccc1N1CCN(CCNC(=O)c2c(Cl)[nH]c3c2CCCc2ccccc2-3)CC1 [Compound 17]
GI50 [20]: 2.57 µM

O=C(NCCN1CCN(c2ccc(Cl)cc2)CC1)c1c(Cl)[nH]c2c1CCCc1ccccc1-2 [Compound 13]
CC50 [26]: 62.2 µM | IAV/MDCK CC50 [27]: 225.00 µM

CCN1CCC[C@H]1CNC(=O)c1[nH]c2c(c1Cl)CCCc1ccccc1-2 [Compound 1, (S)-3-Chloro-N-(1-ethyl-2-pyrrolidinylmethyl)-5,6-dihydro-4H-benzo[6,7]cyclohepta[1,2-b]pyrrol-2-carboxamide]
GI50 [1]: 2.31 µM | TGI (molar concentration giving total growth inhibition) [2]: 3.39 µM | GI50 ([2]; Homo sapiens): 1.76 µM | CC50 ([2]; Homo sapiens, read-out: LC50 (molar concentration leading to 50% net cell death)): 6.31 µM | GI50 [3, 28]: 2.81 µM | GI50 ([3]; Leukemia panel, read-out: average GI50 (mean graph midpoint)): 2.82 µM | GI50 ([3]; five-dose screen, cell lines as named in the sentence, read-out: GI50, range over leukemia cell lines): 1.76 to 5.96 µM | GI50 [4, 29]: 2.34 µM | GI50 ([4]; five-dose screen, read-out: GI50, range over colon cancer cell lines): 1.8 to 3.12 µM | GI50 [5, 30]: 2.14 µM | GI50 [5, 31]: 1.54 to 2.03 µM | GI50 [6]: 5.96 µM | GI50 ([7]; Homo sapiens): 1.68 µM | CC50 ([7]; Homo sapiens, SK-MEL-5, read-out: LC50 (molar concentration leading to 50% net cell death)): 5.62 µM | TGI (molar concentration giving total growth inhibition) [7]: 3.09 µM | GI50 [8]: 2.98 µM | GI50 [9]: 1.76 µM | GI50 [10]: 2.68 µM | GI50 ([11]; SW-620, read-out: Growth inhibition 50 (GI50)): 1.75 µM | GI50 ([12]; Homo sapiens): 1.87 µM | CC50 ([12]; Homo sapiens, UACC-62, read-out: LC50 (molar concentration leading to 50% net cell death)): 8.32 µM | TGI (molar concentration giving total growth inhibition) [12]: 3.98 µM | GI50 [13]: 2.6 µM | GI50 [14]: 1.8 µM | GI50 ([15]; Homo sapiens): 1.87 µM | CC50 ([15]; Homo sapiens, SK-MEL-28, read-out: LC50 (molar concentration leading to 50% net cell death)): 7.24 µM | GI50 [16]: 9.38 µM | CC50 [16]: 46.8 µM | TGI (molar concentration giving total growth inhibition) [16]: 21.34 µM | growth inhibition (GI%) and cytotoxicity (negative values) ([17]; human): −24.35% | GI50 [18, 32]: 4.26 µM | GI50 ([18]; all cell lines, read-out: MG_MID Log10 GI50 (converted)): 4.79 µM | GI50 [19]: 3.57 µM | GI50 [20]: 2.7 µM | GI50 ([21]; Homo sapiens): 1.88 µM | CC50 ([21]; Homo sapiens, UACC-257, read-out: LC50 (molar concentration leading to 50% net cell death)): 8.51 µM | TGI (molar concentration giving total growth inhibition) [21]: 3.98 µM | GI50 [22]: 8.13 µM | GI50 [23]: 5.25 µM | GI50 [24]: 2.03 µM | CC50 [24]: 9.12 µM | TGI (molar concentration giving total growth inhibition) [24]: 4.36 µM | GI50 [25]: 3.02 µM
